Measurements: patent US8871815B2, “Therapeutic compounds” (Signature Therapeutics, Inc., priority 2007, dated 2014)
Like-named read-outs stand apart in the source and are kept apart here. Marks after values point to notes of the source that are not given here.

How the values were obtained:
Beagle dogs [1] = assay: Hemodynamic effects (blood pressure) in beagle dogs, bolus IV; assay type: in vivo, dog; details: 4 min after administration
Procedure: The study was a crossover design. […] The MTD was defined as the dose that reduced mean arterial blood pressure (MAP) by 50% or to less than 50 millimeters of mercury (mmHg or mm Hg). All animals received supplemental oxygen and, if needed, ventilatory support after 4 min of apnea.
Hemodynamic data, such as mean arterial pressure (MAP), were recorded at baseline, 1, 2, 4, 8, 15, 20 and 30 min. Compound 1 was administered at 5, 10, 15 and 30 mg/kg to 3, 6, 6 and 3 dogs respectively. […] Data were analyzed with a 2-way ANOVA followed by t-test with Bonferroni correction for multiple comparisons.

Beagle dogs [2] = tested on: Beagle dogs
rats = assay: Separate rat study, bolus IV, 1% in cremaphor, sleep time; assay type: in vivo; details: for Sleep Time (duration of anesthesia): 7 mg/kg bolus IV
[3] = Anesthetic effects in rats, bolus IV, Loss of Righting Reflex (LORR); assay type: in vivo, rat; details: male, Sprague-Dawley, rat, in vivo; bolus IV, rats; read-out: MTD (maximum tolerated dose)
Procedure: (§1) Also measured was minimum dose to achieve LORR and maximum tolerated dose (MTD).
(§2) The ranges of doses studied were 1.9, 2.3, 3.0, 7.0, 13.7, 14.0 and 15.2 mg/kg for Compound 1 and 3.5, 4.0, 7.0 and 14.0 mg/kg for […].

male Sprague-Dawley rats [4] = assay: as above; assay type: in vivo, rat
Procedure: as §1, §2

male Sprague-Dawley rats [5] = assay: as above; assay type: in vivo, rat; details: 49 mg/kg bolus IV
ferrets = assay: Anti-emetic activity in ferrets (morphine sulfate induced emesis); details: 6 ferrets
Procedure: Male descented ferrets weighing 1.0-1.5 kg with vascular access ports in the jugular vein were housed on a 12/12-hour light/dark cycle under controlled temperature, with food and water provided ad libitum. On each study day, food was presented to ferrets one hour prior to dosing. Immediately prior to dosing, food and water were removed. A 1% Compound 1 formulation, prepared as described in Example 5 and formulated in accordance with Example 4, or […] was administered by IV infusion to the ferrets; see Wynn R L et al, 1993, Eur J Pharmacol 241, 42 re […] administration in ferrets. After administration of Compound 1 or […], animals were placed in clean, transparent cages (with lids) and left unrestrained for a 45-min observation period by an observer blinded to the specific treatment administered.
Episodes of retching and/or vomiting were considered separate episodes when the interval between retches and/or vomits exceeded 5 sec.
After termination of the infusion, 0.5 mg/kg morphine sulfate was administered subcutaneously and the ferrets were monitored for 45 min as described above. Six additional ferrets were administered subcutaneously 0.5 mg/kg morphine sulfate only.

[6] = tested on: alpha2, NMDA, PCP, benzodiazepine or opioid receptors; assay: Cerep Diversity Profile: other receptors; assay type: binding; details: tested at 10 μM
[7] = molecular target: T1, phosphodiesterase 2 (PDE2) (Homo sapiens, UniProt O00408); assay: Cerep Diversity Profile: enzymes, PDE2; assay type: biochemical; details: tested at 10 μM; read-out: inhibition of control binding, PDE2
T1 construct: Cerep, Inc
T1 sequence (O00408 whole entry): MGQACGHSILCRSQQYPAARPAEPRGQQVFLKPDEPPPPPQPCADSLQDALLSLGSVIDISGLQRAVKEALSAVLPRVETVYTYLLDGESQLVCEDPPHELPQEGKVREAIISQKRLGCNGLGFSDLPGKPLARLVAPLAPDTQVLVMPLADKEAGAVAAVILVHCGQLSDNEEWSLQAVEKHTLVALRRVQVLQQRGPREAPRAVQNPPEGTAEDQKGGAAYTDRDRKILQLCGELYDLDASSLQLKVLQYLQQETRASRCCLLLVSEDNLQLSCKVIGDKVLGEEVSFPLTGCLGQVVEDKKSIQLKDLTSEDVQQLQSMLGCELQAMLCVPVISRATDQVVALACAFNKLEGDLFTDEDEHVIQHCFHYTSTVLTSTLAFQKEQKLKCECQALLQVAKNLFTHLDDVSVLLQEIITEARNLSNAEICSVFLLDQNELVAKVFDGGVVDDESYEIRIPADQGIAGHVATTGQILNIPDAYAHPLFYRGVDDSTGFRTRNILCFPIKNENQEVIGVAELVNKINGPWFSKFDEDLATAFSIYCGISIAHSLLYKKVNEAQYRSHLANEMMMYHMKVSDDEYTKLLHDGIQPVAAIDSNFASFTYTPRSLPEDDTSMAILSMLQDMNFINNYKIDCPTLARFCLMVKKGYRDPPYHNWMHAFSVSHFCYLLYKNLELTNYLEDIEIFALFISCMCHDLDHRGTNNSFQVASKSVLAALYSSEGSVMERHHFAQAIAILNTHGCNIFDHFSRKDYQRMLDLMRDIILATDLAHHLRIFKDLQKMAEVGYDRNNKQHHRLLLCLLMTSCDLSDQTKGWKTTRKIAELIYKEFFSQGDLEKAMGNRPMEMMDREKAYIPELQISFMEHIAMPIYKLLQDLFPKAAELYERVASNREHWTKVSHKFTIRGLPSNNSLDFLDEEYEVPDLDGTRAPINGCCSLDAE

in vivo = details: both, pig, in vivo, iv
Procedure: (§3) Experiments were performed on commercial farm-bred swine of either sex (mean weight 33.6 kg). Anesthesia was induced with isoflurane. Intravascular access was obtained from an ear vein. Each pig was intubated and mechanically ventilated. Tissue oxygenation was monitored using continuous pulse oximetry placed on the tongue. Ventilation was monitored using an inspired/expired gas analyzer that measured oxygen, carbon dioxide, and potent inhalation agent concentrations. Ventilator settings were adjusted as needed to maintain steady state.
(§4) ECG was monitored throughout the study. Arterial blood pressure was monitored through the cannulated left femoral artery. MAP, systolic and diastolic arterial pressures and heart rate were collected every 5 seconds. An internal jugular vein was cannulated with a pulmonary artery catheter for thermodilution estimates of cardiac output and blood temperature. Body temperature was maintained at 37° C. Instrumentation for EEG monitoring was accomplished using an adhesive electrode array over the fronto-occipital regions (Aspect Medical. Norwood, Mass., USA).
(§5) Metabolic and hemodynamic parameters for each group were compared at multiple time points using an unpaired two-tailed Student t test. To account for multiple comparisons and maintain the probability of a type I error below 0.05, P values less than 0.025 were considered significant.

pigs [8] = assay: in vivo; details: pig, in vivo, iv
Procedure: as §3, §4, §5

mongrel dogs = assay: Anesthetic and hemodynamic effects in chronically instrumented mongrel dogs, total intravenous anesthesia; assay type: in vivo, dog; details: IV bolus then stepwise IV infusions 0.25-2.0 mg/kg/min
Procedure: Assessments included hemodynamic performance parameters such as blood pressure, heart rate, and cardiac output as well as clinical chemistry parameters and EEG analysis.
General anesthesia was induced in the dogs by IV administration of 7 mg/kg […], and the dogs were tracheally intubated and mechanically ventilated. General anesthesia was maintained using 2.2% end-tidal sevoflurane in oxygen. A thoracotomy was performed at the fifth left intercostal space, and heparin-filled catheters were placed in the proximal descending thoracic aorta (P50 pressure transducer Gould, Oxnard, Calif.), and in the right and left atria to provide IV access. An ultrasonic transit-time flow probe (T108, Transonic Systems, Ithaca, N.Y.) was placed around the ascending thoracic aorta. A […] Doppler flow probe (Model HDP-20-3.5, Triton Surgical Technologies, San Diego, Calif.) was placed around the left anterior descending coronary artery. Six MHz sonomicrometer crystals (Hartley, Houston, Tex.) were implanted in the subendocardium. A high fidelity micromanometer (P7, Konigsberg Instruments, Pasadena, Calif.) was inserted into the left ventricle. […]
The dogs were fasted overnight. […] EEG was recorded continuously during the experiment. Arterial blood gas and chemistry measures included pH, pO2, sO2, pCO2, tCO2, carbonate, potassium, sodium, and base excess, and were measured immediately following blood draws using a blood gas and chemistry analyzer (ABL-505, Radiometer, Copenhagen). […] Following stabilization, baseline measurements of EEG, hemodynamics, ECG, and blood gases were recorded. Blood samples were drawn for PK and clinical chemistry, and pressure volume loops were generated and data recorded.
Following induction, the dogs were tracheally intubated, and mechanically ventilated using 50% oxygen in nitrogen throughout the subsequent drug infusion and recovery periods. […] MAP was monitored continuously, and dosing was discontinued immediately if MAP decreased below 50 mmHg at any time or if the heart rate increased over 200 beats per minute. […]

pigs [9] = assay: Hemodynamic effects, arterial blood gas and serum chemistry in pigs, IV infusion; assay type: in vivo, pig; details: IV infusion, pigs (Compound 1 0.384, propofol 0.750 mg/kg/min)
Procedure: Anesthesia was induced with isoflurane. Intravascular access was obtained from an ear vein. Each pig was intubated and mechanically ventilated.
ECG was monitored throughout the study. […] Body temperature was maintained at 37° C.
Arterial blood gas samples from pigs infused with Compound 1 were taken and analyzed for blood gas and serum chemistry values; mean values are reported in Table 4.

[10] = Aqueous phase concentration in lipid emulsion (ultrafiltration, LC/MS/MS); assay type: physicochemical; details: 1% lipid emulsion formulation
Procedure: The concentration of Compound 1 in the aqueous phase (aqueous phase concentration) of a lipid emulsion formulation was determined.
A one percent (1%) Compound 1 formulation was formulated in accordance with Example 4, Compound 1 being prepared as described in Example 5.

[11] = morphine sulfate 0.5 mg/kg subcutaneously alone, 45 min observation
[12] = 15 min IV infusion at 1 mg/kg/min, then 0.5 mg/kg morphine sulfate sc, 45 min

## CC[C@H](C)c1cccc([C@@H](C)CC)c1O (single isomer, unassigned) [(S,S)]
Beagle dogs [1]; 10 mg/kg bolus IV
  MAP % change from baseline: +7%
Beagle dogs [1]; 15 mg/kg bolus IV
  MAP % change from baseline: +5%
Beagle dogs [1]; 30 mg/kg bolus IV
  MAP % change from baseline: 0%
Beagle dogs [2]; 5 mg/kg bolus IV, dogs
  duration of anesthesia (sleep time): 8 min
Beagle dogs [2]; 10 mg/kg bolus IV, dogs
  duration of anesthesia (sleep time): 24 min
Beagle dogs [2]; 15 mg/kg bolus IV, dogs
  duration of anesthesia (sleep time): 50 min
Beagle dogs [2]; 30 mg/kg bolus IV, dogs
  duration of anesthesia (sleep time): 50 min
rats; rats
  Sleep Time (duration of anesthesia): 6.3 min
[3]
  MTD: 42 mg/kg
Male Sprague-Dawley rats [4]; bolus IV, rats
  HD50 (dose required to cause 50% of the rats to lose righting reflex): 4 mg/kg
  HD7min (dose required to produce 7 minutes of anesthesia): 5.2 mg/kg
  TI (therapeutic index, ratio of MTD to HD7 min): 8.1
Male Sprague-Dawley rats [5]
  deaths: One of six rats died

## CC[C@@H](C)c1cccc([C@@H](C)CC)c1O [(meso), (meso)-2,6-di-sec-butylphenol]
Beagle dogs [1]; 10 mg/kg bolus IV
  MAP % change from baseline: +5%
Beagle dogs [1]; 15 mg/kg bolus IV
  MAP % change from baseline: +15%
Beagle dogs [1]; 30 mg/kg bolus IV
  MAP % change from baseline: −16%
Beagle dogs [2]; 5 mg/kg bolus IV, dogs
  duration of anesthesia (sleep time): 25 min
Beagle dogs [2]; 10 mg/kg bolus IV, dogs
  duration of anesthesia (sleep time): 36 min
Beagle dogs [2]; 15 mg/kg bolus IV, dogs
  duration of anesthesia (sleep time): 55 min
Beagle dogs [2]; 30 mg/kg bolus IV, dogs
  duration of anesthesia (sleep time): 58 min
Beagle dogs [2]; bolus IV, dogs
  quality of anesthesia (smoothness of induction, muscle tone, involuntary motion): inferior
rats; rats
  Sleep Time (duration of anesthesia): 12.7 min
rats; 21 mg/kg, rats
  deaths: One of 6 rats
rats; 21 mg/kg, remaining 5 rats
  duration of anesthesia: 34 min

## CN1CC[C@]23c4c5ccc(O)c4O[C@H]2[C@@H](O)C=C[C@H]3[C@H]1C5.O=S(=O)(O)O [Morphine sulfate]
ferrets; [11]
  episodes of vomiting: 15
  retches: 157

## CC(C)c1cccc(C(C)C)c1O [Propofol, 2,6-diisopropylphenol, reference compound]
Beagle dogs [1]; 10 mg/kg bolus IV
  MAP % change from baseline: −22%
Beagle dogs [1]; 15 mg/kg bolus IV
  MAP % change from baseline: −32%
Beagle dogs [1]; 30 mg/kg bolus IV
  MAP % change from baseline: −66%*
[6]
  effects at alpha2, NMDA, PCP, benzodiazepine or opioid receptors: No significant effects
[7]
  inhibition at 10 µM: > 20%
In vivo
  AUC: 1810 ng·h/mL
Pigs [8]
  IV infusion time producing maximal suppression of BIS: 9.4 ± 1.9 min
Mongrel dogs
  Cardiac output versus baseline: significantly reduced from baseline
Beagle dogs [2]; dog, in vivo, iv
  dogs reaching the MTD (MAP reduced by 50% or to less than 50 mmHg): Two of 3 dogs
Pigs [9]
  lowest HR measured: 88±6 bpm
[10]
  aqueous phase concentration: 6.28 ± 0.41 µg/mL
rats; rats
  Sleep Time (duration of anesthesia): 7.1 min
Male Sprague-Dawley rats [4]; 3.5 mg/kg bolus IV, 6 rats
  LORR produced: no LORR in 4 of 6 rats
Male Sprague-Dawley rats [4]; bolus IV, rats
  HD50 (dose required to cause 50% of the rats to lose righting reflex): 3.8 mg/kg
  HD7min (dose required to produce 7 minutes of anesthesia): 7.0 mg/kg
ferrets; [12]
  retches: 47
  vomits: 3
